Measured values published in ChEMBL document CHEMBL1949500, “Discovery of dimeric inhibitors by extension into the entrance channel of HIV-1 reverse transcriptase” (Bioorg Med Chem Lett, 2012).

Key:
MT2 = assay: (§1) Cytotoxicity against human MT2 cells by MTT assay; type: cell-based; conditions: mt2
[1] = system: Human immunodeficiency virus 1; assay: Antiviral activity against HIV1 3B infected in human MT2 cells assessed as inhibition of virus-induced cytopathic effect by MTT assay; type: functional, organism-based
[2] = as §1; type: cell-based; conditions: MT2 cells
[3] = Human immunodeficiency virus 1, 3B, MT2, read-out: EC50

COCCOc1nc(Nc2ccc(C#N)c(OCC=C(C)C)c2)nc(OC)n1
CC50 (MT2): 8.6 µM | EC50 [1, 3]: 0.097 µM

COCCOCCOc1nc(Nc2ccc(C#N)c(OCC=C(C)C)c2)nc(OC)n1
CC50 (MT2): 13 µM | EC50 [1, 3]: 0.15 µM

COCCOCCOCCOc1nc(Nc2ccc(C#N)c(OCC=C(C)C)c2)nc(OC)n1
CC50 (MT2): 4.2 µM | EC50 [1, 3]: 0.38 µM

CCc1nc(Nc2ccc(C#N)c(OCC=C(C)C)c2)nc(OCCOC)n1
CC50 (MT2): 2.1 µM | EC50 [1, 3]: 0.057 µM

CCc1nc(Nc2ccc(C#N)c(OCC=C(C)C)c2)nc(OCCOCCOC)n1
CC50 (MT2): 9.8 µM | EC50 [1, 3]: 0.54 µM

COc1nc(Nc2ccc(C#N)c(OCC=C(C)C)c2)nc(OCCN2CCN(C)CC2)n1
CC50 (MT2): 7 µM | EC50 [1, 3]: 0.32 µM

COc1nc(Nc2ccc(C#N)c(OCC=C(C)C)c2)nc(OCCOc2nc(Nc3ccc(C#N)c(OCC=C(C)C)c3)nc(OC)n2)n1
CC50 (MT2): 42 µM | EC50 [1, 3]: 0.39 µM

COc1nc(Nc2ccc(C#N)c(OCC=C(C)C)c2)nc(OCCCOc2nc(Nc3ccc(C#N)c(OCC=C(C)C)c3)nc(OC)n2)n1
CC50 (MT2): 21 µM | EC50 [1, 3]: 0.17 µM

COc1nc(Nc2ccc(C#N)c(OCC=C(C)C)c2)nc(OCCCCOc2nc(Nc3ccc(C#N)c(OCC=C(C)C)c3)nc(OC)n2)n1
CC50 (MT2): > 100 µM | EC50 ([1]; mt2): Not Active

COc1nc(Nc2ccc(C#N)c(OCC=C(C)C)c2)nc(OCCOCCOc2nc(Nc3ccc(C#N)c(OCC=C(C)C)c3)nc(OC)n2)n1
CC50 (MT2): > 100 µM | EC50 ([1]; mt2): Not Active

COc1nc(NCCNc2nc(Nc3ccc(C#N)c(OCC=C(C)C)c3)nc(OC)n2)nc(Nc2ccc(C#N)c(OCC=C(C)C)c2)n1
CC50 (MT2): 6 µM | EC50 ([1]; mt2): Not Active

COc1nc(NCCCNc2nc(Nc3ccc(C#N)c(OCC=C(C)C)c3)nc(OC)n2)nc(Nc2ccc(C#N)c(OCC=C(C)C)c2)n1
CC50 (MT2): 50 µM | EC50 ([1]; mt2): Not Active

COc1nc(Nc2ccc(C#N)c(OCC=C(C)C)c2)nc(OCCC2CCCCO2)n1 (racemic)
CC50 (MT2): 4.2 µM | EC50 [1, 3]: 1.2 µM

Cc1ccnc2c1NC(=O)c1cccnc1N2C1CC1 [NEVIRAPINE]
CC50 [2]: > 100 µM
